Inconclusive results and toxic doses are left out.
Tested on: L1210 leukemia ip in BDF1 mice, survival T/C
Assay: NCI In Vivo Anticancer Drug Screen. Data for tumor model L1210 Leukemia (intraperitoneal) in B6D2F1 (BDF1) mice
Conditions: endpoint: mean survival time, higher = longer survival
Method in brief: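 Read-out is survival time, reported as the treated-group measurement over the vehicle-control measurement.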

[1] = dose: 100.0 mg/kg/injection, schedule: Q01DX001 (ip), vehicle: saline
[2] = dose: 200.0 mg/kg/injection, schedule: Q01DX001 (ip), vehicle: saline
[3] = dose: 400.0 mg/kg/injection, schedule: Q01DX001 (ip), vehicle: saline

CCCCCCCCc1c(C)nc(N)[nH]c1=O
T/C (dose: 100.0 mg/kg/injection, schedule: Q04DX002 (ip), vehicle: Klucel (hydroxypropylcellulose) (HPC)): 100 % of control | T/C (dose: 200.0 mg/kg/injection, schedule: Q04DX002 (ip), vehicle: Klucel (hydroxypropylcellulose) (HPC)): 100 % of control | T/C (dose: 400.0 mg/kg/injection, schedule: Q04DX002 (ip), vehicle: Klucel (hydroxypropylcellulose) (HPC)): 104 % of control

CC(=O)CCC1(C)OC(=O)C(C)C2C1CCC1(C)C(=O)CCC21 (stereo unspecified)
T/C (dose: 50.0 mg/kg/injection, schedule: Q01DX001 (sc), vehicle: steriod suspending solution): 101 % of control | T/C (dose: 100.0 mg/kg/injection, schedule: Q01DX001 (sc), vehicle: steriod suspending solution): 103 % of control | T/C (dose: 200.0 mg/kg/injection, schedule: Q01DX001 (sc), vehicle: steriod suspending solution): 113 % of control | T/C (dose: 400.0 mg/kg/injection, schedule: Q01DX001 (sc), vehicle: steriod suspending solution): 101 % of control

C=CCc1ccc(OC(=O)Nc2ccc(S(=O)(=O)NC3CCCCC3)cc2)c(OC)c1
T/C [1]: 91 % of control | T/C [2]: 94 % of control | T/C [3]: 96 % of control

CC(C1CCCC1)C1CCCC1
T/C (dose: 100.0 mg/kg/injection, schedule: Q04DX002 (ip), vehicle: saline with Tween-80): 96 % of control | T/C (dose: 200.0 mg/kg/injection, schedule: Q04DX002 (ip), vehicle: saline with Tween-80): 90 % of control | T/C (dose: 400.0 mg/kg/injection, schedule: Q04DX002 (ip), vehicle: saline with Tween-80): 109 % of control

CC(=NCc1ccccc1)Nc1ccc(NC(=O)c2ccc(C(=O)Nc3ccc(NC(C)=NCc4ccccc4)cc3)cc2)cc1
T/C (dose: 15.0 mg/kg/injection, schedule: Q01DX Z (ip), vehicle: carboxymethylcellulose (CMC)): 92 % of control | T/C (dose: 30.0 mg/kg/injection, schedule: Q01DX Z (ip), vehicle: carboxymethylcellulose (CMC)): 103 % of control | T/C (dose: 60.0 mg/kg/injection, schedule: Q01DX Z (ip), vehicle: carboxymethylcellulose (CMC)): 95 % of control | T/C (dose: 120.0 mg/kg/injection, schedule: Q01DX Z (ip), vehicle: carboxymethylcellulose (CMC)): 97 % of control

O=c1cc(Cc2ccc(F)cc2)[nH]c(=O)[nH]1
T/C (dose: 25.0 mg/kg/injection, schedule: Q01DX001 (ip), vehicle: Klucel (hydroxypropylcellulose) (HPC)): 97 % of control | T/C (dose: 50.0 mg/kg/injection, schedule: Q01DX001 (ip), vehicle: Klucel (hydroxypropylcellulose) (HPC)): 101 % of control | T/C (dose: 100.0 mg/kg/injection, schedule: Q01DX001 (ip), vehicle: Klucel (hydroxypropylcellulose) (HPC)): 96 % of control

O=[N+]([O-])c1ccnc(NC2CCCCC2)c1
T/C [1]: 97 % of control | T/C [2]: 96 % of control | T/C [3]: 96 % of control

CC1(C)CCC(=NNC(N)=S)CC1
T/C (dose: 5.0 mg/kg/injection, schedule: Q01DX001 (ip), vehicle: carboxymethylcellulose (CMC)): 101 % of control | T/C (dose: 10.0 mg/kg/injection, schedule: Q01DX001 (ip), vehicle: carboxymethylcellulose (CMC)): 97 % of control | T/C (dose: 20.0 mg/kg/injection, schedule: Q01DX001 (ip), vehicle: carboxymethylcellulose (CMC)): 92 % of control | T/C (dose: 40.0 mg/kg/injection, schedule: Q01DX001 (ip), vehicle: carboxymethylcellulose (CMC)): 92 % of control

CCCCN(CCCC)CCC(=O)OCC
T/C (dose: 100.0 mg/kg/injection, schedule: Q04DX003 (ip), vehicle: saline with Tween-80): 94 % of control | T/C (dose: 200.0 mg/kg/injection, schedule: Q04DX003 (ip), vehicle: saline with Tween-80): 101 % of control | T/C (dose: 400.0 mg/kg/injection, schedule: Q04DX003 (ip), vehicle: saline with Tween-80): 89 % of control

CCc1c(Nc2ccccc2Cl)[nH]c(N)nc1=S
T/C (dose: 100.0 mg/kg/injection, schedule: Q01DX Z (ip), vehicle: methylcellulose (MC)): 97 % of control | T/C (dose: 200.0 mg/kg/injection, schedule: Q01DX Z (ip), vehicle: methylcellulose (MC)): 97 % of control

CC(=O)C1C(=O)C(=O)OC1C (stereo unspecified)
T/C (dose: 100.0 mg/kg/injection, schedule: Q04DX003 (ip), vehicle: alcohol): 94 % of control | T/C (dose: 200.0 mg/kg/injection, schedule: Q04DX003 (ip), vehicle: alcohol): 96 % of control

C=C1C(=O)OC2CC(C)C(C(O)CC(C)O)=CCC12 (stereo unspecified)
T/C (dose: 50.0 mg/kg/injection, schedule: Q01DX001 (ip), vehicle: water): 95 % of control | T/C (dose: 100.0 mg/kg/injection, schedule: Q01DX001 (ip), vehicle: water): 95 % of control

S=C(c1ccccn1)N1CCOCC1
T/C (dose: 100.0 mg/kg/injection, schedule: Q04DX003 (ip), vehicle: Klucel (hydroxypropylcellulose) (HPC)): 90 % of control | T/C (dose: 200.0 mg/kg/injection, schedule: Q04DX003 (ip), vehicle: Klucel (hydroxypropylcellulose) (HPC)): 102 % of control | T/C (dose: 400.0 mg/kg/injection, schedule: Q04DX003 (ip), vehicle: Klucel (hydroxypropylcellulose) (HPC)): 95 % of control

CC1CN1CCCNC(=O)C(=O)NCCCN1CC1C (stereo unspecified)
T/C (dose: 12.5 mg/kg/injection, schedule: Q04DX003 (ip), vehicle: saline): 110 % of control | T/C (dose: 50.0 mg/kg/injection, schedule: Q04DX003 (ip), vehicle: saline): 168 % of control

Source: PubChem BioAssay AID248 (DTP/NCI, 2004)
